Reference: patent US10391079B2, “Methods of diagnosing and treating Alzheimer's disease with S-equol” (Ausio Pharmaceuticals, LLC, priority 2016, dated 2019)
“Also recorded” adds a separate entry of the source.

Experiments:
[1] = test system: Alzheimer's disease subjects; assay: Montreal Cognitive Assessment (MoCA) in single-blind S-equol pilot study; assay type: in vivo, human; details: for MoCA Visit 3 (Mean ± SEM): wash-out evaluation, 2 weeks placebo after S-equol; for percent MoCA score change between visit 1 and visit 2: FIG. 1
Method: Alzheimer's disease subjects were recruited through the University of Kansas Alzheimer's Disease Center (ADC). The ADC maintains a clinical cohort whose routine characterizations include Clinical Dementia Rating (CDR) scale ratings, uniform data set (UDS) cognitive testing, and APOE genotyping. The diagnosis of clinic cohort participants is primarily based on CDR and UDS data, and is determined through a consensus conference that includes subspecialty-trained cognitive neurologists and an expert neuropsychologist. Subjects diagnosed with Alzheimer's disease further meet current criteria for that diagnosis in McKhann et al., Alzheimers Dement, 7 (2011) 263-269.
To qualify for the study, participants had to be female with very mild (CDR 0.5) or mild (CDR 1) Alzheimer's disease. Each participant was required to have a study partner. As part of the informed consent process, the subjects and study partners were told that during different parts of the study the participants would receive either an S-equol capsule or an inert placebo. The placebo could not be distinguished from the S-equol by sight, touch, or taste so although the investigators knew whether participants at any given point were receiving S-equol or placebo, the participants themselves were blind to the actual treatment. The S-equol and placebo capsule were provided by Ausio Pharmaceuticals, LLC (Cincinnati, Ohio).
(§1) Subjects received a two week supply of medication, which uniformly consisted of placebo, and were instructed to take the study medication twice a day. At the end of this initial two-week period participants returned to the ADC clinical trials unit for their first study visit (visit 1; lead-in evaluation). Visit 1 procedures included an assessment of study medication compliance, vital signs, a query for perceived side effects, the Montreal Cognitive Assessment (MoCA), and a 40 ml phlebotomy; the blood was used to measure platelet mitochondria cytochrome oxidase (COX) and citrate synthase (CS) activities. At the completion of this visit the next two weeks of study medication was dispensed, which uniformly consisted of 10 mg S-equol capsule.
(§2) At the end of this second two-week period participants returned to the ADC clinical trials unit for their second study visit (visit 2; active treatment evaluation). The same procedures were performed during the lead-in evaluation and dispensed the next two weeks of study medication, which at this point uniformly consisted of placebo.
(§3) At the end of this final two-week period the participants returned to the ADC clinical trials unit for their third study visit (visit 3; wash-out evaluation). The lead-in and active treatment evaluation procedures were performed again, which completed participation in this single-blind study.
(§4) Secondary outcomes included a safety analysis of the S-equol 10 mg twice per day dose and an analysis of MoCA scores.

[2] = test system: platelet mitochondria cytochrome oxidase (COX); assay: Platelet mitochondria COX activity referenced to CS activity (COX/CS) in S-equol pilot study; assay type: in vivo, human; details: for COX/CS Visit 3 (Mean ± SEM): wash-out, 2 weeks placebo after S-equol
Method: as §1, §2, §3
Forty milliliter blood samples were collected in tubes containing acid-citrate-dextrose (ACD) tubes as an anticoagulant, and maintained at room temperature. Within 24 hours of phlebotomy the blood was processed by the ADC Mitochondrial Genomics and Metabolism Core. To initiate the processing procedure, platelets were isolated by centrifugation and enriched mitochondrial fractions prepared using previously described methods. Such procedures involved nitrogen cavitation to rupture platelets followed by centrifugation to collect mitochondria.
The protein concentrations of the enriched mitochondrial fractions were measured using a BCA protein assay kit (BioRad, Hercules, Calif.). COX Vmax activity was determined as a pseudo first order-rate constant (sec-1/mg) by measuring the oxidation of reduced cytochrome c at 550 nm.
In addition to measuring COX activity, each sample's citrate synthase (CS) Vmax activity (nmol/min/mg) was measured. This assay was performed spectrophotometrically by following the formation of 5-thio-2-nitrobenzoate (412 nm) following the addition of 100 μM oxaloacetate at 30° C. In addition to referencing COX activities to total protein, potential inter-sample differences in mitochondrial mass was corrected by referencing the COX activity for each sample to its corresponding CS activity.
An S-equol-associated modification of platelet mitochondria COX activity was designated as the primary outcome measure. To determine whether an S-equol-associated change in platelet mitochondrial COX activity occurred for an individual participant, an anticipated pattern of response analysis was used. It was expected that platelet mitochondria COX activity would increase in response to the active treatment.
Participants were identified as responding (i.e., increasing COX activity in response to treatment, classified as “successes” or “responders”) if the individual change (slope) from the lead-in measurement to the active treatment measurement was greater than the change (slope) from the active-treatment measurement to the wash-out (visit 3) measurement.

[3] = test system: Alzheimer's disease patients; assay: Safety analysis of S-equol 10 mg twice per day; assay type: in vivo, human; details: S-equol 10 mg twice per day for two weeks
Method: as §1, §4

[4] = test system: cytochrome oxidase (COX); details: brains from ovariectomized mice; cited from earlier work

Oc1ccc([C@H]2COc3cc(O)ccc3C2)cc1 [S-equol]
MoCA Visit 3 (Mean ± SEM) ([1]; APOE4 carriers, 8 participants): 15.9 ± 2.7
percent MoCA score change between visit 1 and visit 2 ([1]; APOE4 carriers): trended in a downward direction
MoCA Visit 3 (Mean ± SEM) ([1]; APOE4 non-carriers, 7 participants): 12.4 ± 1.6
percent MoCA score change between visit 1 and visit 2 ([1]; APOE4 non-carriers): in an upward direction
MoCA Visit 3 (Mean ± SEM) ([1]; Total, 15 participants): 14.3 ± 1.6
differences in mean MoCA scores between visits, or between APOE4 carriers and non-carriers ([1]; visits 1-3): No significant differences were observed
COX/CS Visit 3 (Mean ± SEM) ([2]; APOE4 carriers, 8 participants): 4.4e-05
COX/CS Visit 3 (Mean ± SEM) ([2]; APOE4 non-carriers, outlier excluded, 6 participants): 4.1e-05
COX/CS Visit 3 (Mean ± SEM) ([2]; APOE4 non-carriers, outlier included, 7 participants): 5.1E−05 ± 1.1E−05
COX/CS Visit 3 (Mean ± SEM) ([2]; Total, outlier excluded, 14 participants): 4.2e-05
COX/CS Visit 3 (Mean ± SEM) ([2]; Total, outlier included, 15 participants): 4.7e-05
percent COX/CS change between visit 1 and visit 2 ([2]; non-APOE4 carriers versus APOE4 carriers, FIG. 3): trended higher in the non-APOE4 carriers than it did in the APOE4 carriers
differences in mean COX/CS values between visits, or between APOE4 carriers and non-carriers ([2]; visits 1-3): No significant differences were observed
adverse events [3]: No treatment-related adverse events (either serious or non-serious) were observed; also recorded: No adverse events occurred
COX1 protein levels [4]: increase
cytochrome oxidase (COX) activity [4]: increase
